Assay results published in PMC7838199, “Color-tunable bioluminescence imaging portfolio for cell imaging” (Scientific Reports, 2021).

The molecules below were run against T1, NanoLuc (Oplophorus gracilirostris, UniProt Q9GV45, A31E/Q38R/Q45L/L54V/A60N/K70R/V71I/A81I/F95D/L99Q/M102K/I117V/P142E/Q151K/Y165I/N193R) (assay: bioluminescence spectrum in transfected-cell lysate). Conditions: 50 mM HEPES, pH 7.2; MDA-MB-231 lysate.
T1 construct: pcDNA3.1(+) in MDA-MB-231 cells, lysate
Format: cell-based

T1 sequence (Q9GV45 28-196 with the stated changes): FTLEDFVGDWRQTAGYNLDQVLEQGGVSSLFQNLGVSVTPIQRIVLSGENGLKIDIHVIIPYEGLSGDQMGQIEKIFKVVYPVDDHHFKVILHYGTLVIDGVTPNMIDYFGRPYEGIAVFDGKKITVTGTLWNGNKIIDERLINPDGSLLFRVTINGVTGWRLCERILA

Row | Compound | bioluminescence spectrum in transfected-cell lysate
1 | O=c1c(Cc2ccccc2)nc2c(-c3ccccc3)[nH]c(-c3ccccc3)cn1-2 [3d] | 3d selectively emits significant BL with NanoLuc

What follows are molecules tested on T2, Artificial Luciferase 16 (ALuc16) (assay: bioluminescence, Lineweaver-Burk). Conditions: 50 mM HEPES, pH 7.2; 0.1 µM luciferase.
T2 construct: designed artificial luciferase; recombinant for the kinetics; cDNA in pcDNA3.1(+) for cell work
Format: biochemical, synthetic construct
Excerpt: bioluminescence, Lineweaver-Burk on Artificial Luciferase 16 (ALuc16)

Row | Km | Compound
2 | 7.9 µM | CN(C)c1ccc(/C=C/c2cn3c(=O)c(Cc4ccc(O)cc4)nc-3c(Cc3ccccc3)[nH]2)cc1 [1b]
3 | 86.5 µM | CN(C)c1ccc(/C=C/C=C/C=C/c2cn3c(=O)c(Cc4ccccc4)nc-3c(-c3ccccc3)[nH]2)cc1 [2d]
4 | 38.5 µM | Oc1ccc(Cc2nc3c(Cc4ccccc4)nc(-c4ccc(O)cc4)cn3c2O)cc1 [CTZ, coelenterazine]
5 | 157 µM | CN(C)c1ccc(/C=C/C=C/c2cn3c(=O)c(Cc4ccccc4)nc-3c(-c3ccccc3)[nH]2)cc1 [2c]
6 | 26.1 µM | CN(C)c1ccc(/C=C/C=C/c2cn3c(=O)c(Cc4ccc(O)cc4)nc-3c(Cc3ccccc3)[nH]2)cc1 [1c]
7 | 70.6 µM | CN(C)c1ccc(/C=C/C=C/C=C/c2cn3c(=O)c(Cc4ccc(O)cc4)nc-3c(Cc3ccccc3)[nH]2)cc1 [1d]
8 | 68.3 µM | O=c1c(Cc2ccccc2)nc2c(-c3ccccc3)[nH]c(-c3ccncc3)cn1-2 [3c]

Row | Compound | Km
9 | O=c1c(Cc2ccccc2)nc2c(-c3ccccc3)[nH]c(-c3ccccc3)cn1-2 [3d] | 120 µM
